Test results as given in PubChem BioAssay AID330 (DTP/NCI, 2004).
Values joined by “and” are separate entries in the source; they are usually repeats but may differ in a detail not shown here. Equal values may be shown once. Inconclusive results and toxic doses are left out. The calls were made as follows: active = survival T/C of 150% or more; inactive = T/C below 125% in these data.

Tested on: P388 leukemia ip, CD2F1 mice, survival T/C
Assay: NCI In Vivo Anticancer Drug Screen. Data for tumor model P388 Leukemia (intraperitoneal) in CD2F1 (CDF1) mice
Settings: endpoint: median survival time, higher = longer survival
Procedure, shortened: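 Mice carrying the transplanted tumor received test compound or vehicle. Survival was recorded in each group, and the value is the treated-group measurement divided by that of the vehicle-treated control group.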

[1] = dose: 50.0 mg/kg/injection, schedule: Q01DX005 (ip), vehicle: Klucel (hydroxypropylcellulose) (HPC)
[2] = dose: 100.0 mg/kg/injection, schedule: Q01DX005 (ip), vehicle: Klucel (hydroxypropylcellulose) (HPC)
[3] = dose: 200.0 mg/kg/injection, schedule: Q01DX005 (ip), vehicle: Klucel (hydroxypropylcellulose) (HPC)
[4] = dose: 12.5 mg/kg/injection, schedule: Q01DX009 (ip), vehicle: saline with Tween-80
[5] = dose: 25.0 mg/kg/injection, schedule: Q04DX003 (ip), vehicle: saline with Tween-80
[6] = dose: 25.0 mg/kg/injection, schedule: Q01DX005 (ip), vehicle: saline with Tween-80
[7] = dose: 25.0 mg/kg/injection, schedule: Q01DX005 (ip), vehicle: Klucel (hydroxypropylcellulose) (HPC)
[8] = dose: 50.0 mg/kg/injection, schedule: Q01DX009 (ip), vehicle: saline with Tween-80
[9] = dose: 100.0 mg/kg/injection, schedule: Q01DX009 (ip), vehicle: saline with Tween-80
[10] = dose: 200.0 mg/kg/injection, schedule: Q01DX009 (ip), vehicle: saline with Tween-80
[11] = dose: 25.0 mg/kg/injection, schedule: Q01DX009 (ip), vehicle: saline with Tween-80
[12] = dose: 60.0 mg/kg/injection, schedule: Q01DX005 (ip), vehicle: Klucel (hydroxypropylcellulose) (HPC)
[13] = dose: 120.0 mg/kg/injection, schedule: Q01DX005 (ip), vehicle: Klucel (hydroxypropylcellulose) (HPC)
[14] = dose: 240.0 mg/kg/injection, schedule: Q01DX005 (ip), vehicle: Klucel (hydroxypropylcellulose) (HPC)
[15] = dose: 50.0 mg/kg/injection, schedule: Q01DX005 (ip), vehicle: saline with Tween-80
[16] = dose: 100.0 mg/kg/injection, schedule: Q01DX005 (ip), vehicle: saline with Tween-80
[17] = dose: 100.0 mg/kg/injection, schedule: Q04DX003 (ip), vehicle: saline with Tween-80

Measured: T/C

CCOC(=O)/N=[N+](\[O-])c1cccc([N+](=O)[O-])c1
inactive: dose: 100.0 mg/kg/injection, schedule: Q01DX001 (ip), vehicle: saline with Tween-80 103 % of control | dose: 200.0 mg/kg/injection, schedule: Q01DX001 (ip), vehicle: saline with Tween-80 93 % of control

OCC(O)C(O)C(O)c1nn(-c2ccccc2)c2nc3ccc(Cl)cc3nc12 (stereo unspecified)
inactive: [1] 90 % of control | [2] 90 % of control | [3] 89 % of control

CSC1=NC(C)(C)N=C(Oc2cc(Cl)cc(Cl)c2)N1
inactive: dose: 60.0 mg/kg/injection, schedule: Q01DX005 (ip), vehicle: saline with Tween-80 89 % of control | dose: 120.0 mg/kg/injection, schedule: Q01DX005 (ip), vehicle: saline with Tween-80 94 % of control | dose: 240.0 mg/kg/injection, schedule: Q01DX005 (ip), vehicle: saline with Tween-80 92 % of control

CCOC(=O)/N=[N+](\[O-])c1ccccc1
inactive: dose: 0.2 mg/kg/injection, schedule: Q01DX009 (ip), vehicle: saline with Tween-80 103 % of control | dose: 0.39 mg/kg/injection, schedule: Q01DX009 (ip), vehicle: saline with Tween-80 103 % of control | dose: 0.78 mg/kg/injection, schedule: Q01DX009 (ip), vehicle: saline with Tween-80 106 % of control and 95 % of control | dose: 1.56 mg/kg/injection, schedule: Q01DX009 (ip), vehicle: saline with Tween-80 109 % of control and 95 % of control | dose: 3.12 mg/kg/injection, schedule: Q01DX009 (ip), vehicle: saline with Tween-80 103 % of control and 123 % of control | dose: 3.12 mg/kg/injection, schedule: Q04DX003 (ip), vehicle: saline with Tween-80 112 % of control and 115 % of control | dose: 6.25 mg/kg/injection, schedule: Q01DX009 (ip), vehicle: saline with Tween-80 107 % of control and 115 % of control | dose: 6.25 mg/kg/injection, schedule: Q04DX003 (ip), vehicle: saline with Tween-80 99 % of control and 110 % of control | [4] 115 % of control | dose: 12.5 mg/kg/injection, schedule: Q04DX003 (ip), vehicle: saline with Tween-80 112 % of control and 117 % of control and 123 % of control | [5] 110 % of control

CCOC(=O)c1cn(C)c2c1C(=O)C(C(=O)OCC)CC(=O)N2 (stereo unspecified)
inactive: dose: 50.0 mg/kg/injection, schedule: Q01DX005 (ip), vehicle: saline + Tween-80 + alcohol 94 % of control | dose: 100.0 mg/kg/injection, schedule: Q01DX005 (ip), vehicle: saline + Tween-80 + alcohol 99 % of control | dose: 200.0 mg/kg/injection, schedule: Q01DX005 (ip), vehicle: saline + Tween-80 + alcohol 101 % of control

CCCn1c2c(c3ccccc3c1=O)C(=O)c1ccccc1-2
inactive: dose: 6.25 mg/kg/injection, schedule: Q01DX005 (ip), vehicle: saline with Tween-80 95 % of control | dose: 12.5 mg/kg/injection, schedule: Q01DX005 (ip), vehicle: saline with Tween-80 88 % of control | [6] 93 % of control

O=C(O)c1cccc(C(=O)O)c1Sc1ccc(Cl)cc1
inactive: dose: 100.0 mg/kg/injection, schedule: Q04DX002 (ip), vehicle: saline with Tween-80 100 % of control | dose: 200.0 mg/kg/injection, schedule: Q04DX002 (ip), vehicle: saline with Tween-80 105 % of control | dose: 400.0 mg/kg/injection, schedule: Q04DX002 (ip), vehicle: saline with Tween-80 100 % of control

COc1cc2c(c3c1c(=O)c1cccc(F)c1n3C)C=CC(C)(C)O2
inactive: [7] 113 % of control | [1] 109 % of control and 110 % of control | [2] 120 % of control

CCN(CC)CCN1C(=O)CN=C(c2ccccn2)c2cc(Cl)ccc21
inactive: [8] 100 % of control | [9] 95 % of control | [10] 100 % of control

Cc1ccc2c(ccc(/C=C/c3ccc(O)c4ncccc34)[n+]2C)c1
inactive: [4] 116 % of control | [11] 105 % of control

O=C(Nc1ncc([N+](=O)[O-])s1)c1cc(Cl)cc(Cl)c1
inactive: dose: 12.5 mg/kg/injection, schedule: Q01DX005 (ip), vehicle: Klucel (hydroxypropylcellulose) (HPC) 104 % of control | [7] 100 % of control | [1] 100 % of control and 101 % of control

COc1cc(Br)c(C2SCC(=O)N2c2nncs2)cc1OC (stereo unspecified)
inactive: [12] 121 % of control | [13] 106 % of control | [14] 100 % of control

Cc1nc2ncn(-c3ccccc3)c2c(=O)n1-c1ccccc1
inactive: [1] 100 % of control | [2] 100 % of control | [3] 100 % of control

Cc1ccccc1NC(=O)Nc1sc(=S)c2c(c1C#N)CCCC2
inactive: [15] 94 % of control | [16] 103 % of control | dose: 200.0 mg/kg/injection, schedule: Q01DX005 (ip), vehicle: saline with Tween-80 103 % of control

C=C(C)C1CC=C(C)/C(=N/NC(=O)c2ccccn2)C1 (stereo unspecified)
inactive: dose: 100.0 mg/kg/injection, schedule: Q04DX003 (ip), vehicle: Klucel (hydroxypropylcellulose) (HPC) 111 % of control | dose: 200.0 mg/kg/injection, schedule: Q04DX003 (ip), vehicle: Klucel (hydroxypropylcellulose) (HPC) 94 % of control | dose: 400.0 mg/kg/injection, schedule: Q04DX003 (ip), vehicle: Klucel (hydroxypropylcellulose) (HPC) 94 % of control

COc1ccc2c(C[N+](C)(C)CCC#N)cc(=O)oc2c1
inactive: dose: 50.0 mg/kg/injection, schedule: Q04DX002 (ip), vehicle: saline 100 % of control | dose: 100.0 mg/kg/injection, schedule: Q04DX002 (ip), vehicle: saline 100 % of control | dose: 200.0 mg/kg/injection, schedule: Q04DX002 (ip), vehicle: saline 104 % of control

CC(C)(C)C(Br)C(=O)NN=C(c1ccccc1)c1ccccc1 (stereo unspecified)
inactive: [8] 106 % of control | [9] 105 % of control | [10] 99 % of control

C/C(=C/c1cc(Br)c(O)c(Br)c1)[N+](=O)[O-]
inactive: dose: 6.25 mg/kg/injection, schedule: Q01DX009 (ip), vehicle: saline 100 % of control | dose: 12.5 mg/kg/injection, schedule: Q01DX009 (ip), vehicle: saline 110 % of control and 90 % of control | dose: 12.5 mg/kg/injection, schedule: Q04DX003 (ip), vehicle: saline 106 % of control | dose: 25.0 mg/kg/injection, schedule: Q01DX009 (ip), vehicle: saline 109 % of control and 90 % of control | dose: 25.0 mg/kg/injection, schedule: Q04DX003 (ip), vehicle: saline 100 % of control | dose: 50.0 mg/kg/injection, schedule: Q04DX003 (ip), vehicle: saline 100 % of control | dose: 100.0 mg/kg/injection, schedule: Q01DX009 (ip), vehicle: saline 90 % of control | [17] 98 % of control

CC1(c2ccc3c(c2)OCO3)OC(CCl)CS1 (stereo unspecified)
inactive: [8] 101 % of control | [9] 101 % of control | [10] 101 % of control

C1CCN2CC3CCCN4CCCC(C2C1)C34 (stereo unspecified)
inactive: dose: 6.2 mg/kg/injection, schedule: Q01DX007 (ip), vehicle: carboxymethylcellulose (CMC) 91 % of control and 100 % of control | dose: 12.5 mg/kg/injection, schedule: Q01DX007 (ip), vehicle: carboxymethylcellulose (CMC) 91 % of control | dose: 25.0 mg/kg/injection, schedule: Q01DX007 (ip), vehicle: carboxymethylcellulose (CMC) 91 % of control

Nc1nc(N)c2nc(Sc3ccc(Cl)cc3)c(-c3ccccc3)nc2n1
inactive: [5] 95 % of control | dose: 50.0 mg/kg/injection, schedule: Q04DX003 (ip), vehicle: saline with Tween-80 91 % of control | [17] 93 % of control

Cc1cc(C)cc(C(=O)NC(c2ccncc2)C(NC(=O)c2cc(C)cc(C)c2)c2ccncc2)c1 (stereo unspecified)
inactive: [6] 92 % of control | [15] 90 % of control | [16] 99 % of control | dose: 400.0 mg/kg/injection, schedule: Q01DX005 (ip), vehicle: saline with Tween-80 92 % of control

CN(C)c1ccc(N=C2C=CC(=O)C=C2)cc1
inactive: dose: 1.5 mg/kg/injection, schedule: Q01DX009 (ip), vehicle: saline with Tween-80 101 % of control and 104 % of control and 106 % of control | dose: 3.0 mg/kg/injection, schedule: Q01DX009 (ip), vehicle: saline with Tween-80 105 % of control and 106 % of control (2×) | dose: 6.0 mg/kg/injection, schedule: Q01DX009 (ip), vehicle: saline with Tween-80 113 % of control (2×) and 120 % of control | dose: 12.0 mg/kg/injection, schedule: Q01DX009 (ip), vehicle: saline with Tween-80 100 % of control and 103 % of control | [11] 102 % of control

COc1ccc(C)cc1NC(=O)SC(C)C
inactive: [12] 89 % of control | [13] 86 % of control | [14] 93 % of control
